Laboratory results: patent US9150519B2, “6-amino-pyrimidine-4-carboxamide derivatives and related compounds which bind to the sphingosine 1-phosphate (S1P) receptor for the treatment of multiple sclerosis” (MERCK SERONO SA, priority 2007, dated 2015)

What follows are compounds tested against S1P1 (Homo sapiens (Human), UniProt P21453) (assay: 35S-GTPγS binding assay, S1P1 membranes). Conditions: membranes from CHO cells expressing S1P1; read-out: S1P1 GTPyS EC50.
Type: biochemical
Experimental: Membranes were prepared from CHO cells expressing S1P1 or S1P3 for use in ligand and […] binding studies. Cells were suspended in 50 mM TRIS, pH 7.4, 2 mM EDTA, 250 mM Sucrose (buffer A) and 1× Complete protease inhibitor cocktail (Roche), and disrupted at 4° C. by nitrogen decompression using a cell disruption bomb (Parr Instrument). Following centrifugation at 1000 RPM for 10 min at 4° C., the supernatant was suspended in buffer A and centrifuged again at 19000 RPM for 60 min at 4° C. The pellet was then suspended in 10 mM HEPES, pH 7.4, 1 mM EDTA, 250 mM Sucrose (Buffer B), and 1× Complete EDTA-free protease inhibitor cocktail and homogenized using a potter. Membranes were flash frozen in liquid nitrogen and stored at −80° C. [33P]sphingosine 1-phosphate (3000 Ci/mmol; American Radiolabeled Chemicals, Inc.) was added to test compounds in DMSO. […] Binding was performed for 60 min at room temperature on a shaker and bound radioactivity was measured on a PerkinElmer 1450 MicroBeta counter. Specific binding was calculated by subtracting remaining radioactivity in the presence of 1000-fold excess of unlabeled S1P. Binding data were analyzed using the GraphPad Prism program.
The assay was initiated with the addition of 20 μl of 1.5 nM [35S]-GTPγS (1100 Ci/mmol; GE Healthcare) in assay buffer. After 60 min incubation at 30° C. on a shaker, plates were centrifuged for 10 min at 2000 RPM. Supernatant was discarded and membrane bound radioactivity was measured on a PerkinElmer 1450 MicroBeta counter. Triplicate samples were averaged and expressed as % response relative to SIP activation in absence of compound (n=2).

Chain of S1P1 (P21453 whole entry, species assumed): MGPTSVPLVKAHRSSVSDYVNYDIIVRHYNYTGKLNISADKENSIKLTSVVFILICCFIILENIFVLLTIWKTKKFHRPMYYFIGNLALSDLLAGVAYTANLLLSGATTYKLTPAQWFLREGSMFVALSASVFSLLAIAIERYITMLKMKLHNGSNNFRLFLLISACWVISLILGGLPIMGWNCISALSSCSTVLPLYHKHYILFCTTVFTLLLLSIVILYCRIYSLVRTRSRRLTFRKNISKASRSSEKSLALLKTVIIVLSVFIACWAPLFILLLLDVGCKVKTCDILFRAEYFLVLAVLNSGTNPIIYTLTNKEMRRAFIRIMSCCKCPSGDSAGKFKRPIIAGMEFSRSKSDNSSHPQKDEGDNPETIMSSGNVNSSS

Question: Which EC50 does the source give for `O=C(Nc1ccc(O)c(F)c1)c1cc(NC2CCCCC2)ncn1` [Example 1-14] here?
Answer: 1.58 µM

Question: Which EC50 does the source give for `NS(=O)(=O)c1ccc(NC(=O)c2cc(NC3CCCCC3)ncn2)cc1` [Example 1-17] here?
Answer: 1.99 µM

Question: Which EC50 does the source give for `Cc1cc(O)ccc1NC(=O)c1cc(N(C)C2CCCCC2)ncn1` [Example 1-21] here?
Answer: 0.66 µM

Question: How did the EC50 turn out when `Cc1cc(O)ccc1NC(=O)c1cc(NC2CCCCCC2)ncn1` [Example 1-23] was run?
Answer: 0.97 µM

Question: Which EC50 does the source give for `Cc1cc(O)ccc1NC(=O)c1cc(NC2CCCCC2C)ncn1` (stereo not shown) [Example 1-24] here?
Answer: 1.68 µM

Question: Which EC50 does the source give for `COc1cc(NS(C)(=O)=O)ccc1NC(=O)c1cc(NC2CCCCC2)ncn1` [Example 1-27] here?
Answer: 0.374 µM

Question: Which EC50 does the source give for `CN(c1cc(C(=O)Nc2ccc(S(N)(=O)=O)cc2)ncn1)C1CCCCC1` [Example 1-30] here?
Answer: 0.674 µM

Question: Which EC50 does the source give for `CCNS(=O)(=O)c1ccc(NC(=O)c2cc(N(C)C3CCCCC3)ncn2)cc1` [Example 1-31] here?
Answer: 2 µM

Question: For `Cc1cc(O)ccc1NC(=O)c1cc(N(C)C2CCC(C)CC2)ncn1` (stereo not shown) [Example 1-32], which EC50 is on record?
Answer: 0.61 µM

Question: For `CN(c1cc(C(=O)Nc2ccc(S(=O)(=O)NCCO)cc2)ncn1)C1CCCCC1` [Example 1-37], which EC50 is on record?
Answer: 0.907 µM

Question: For `COCCNS(=O)(=O)c1ccc(NC(=O)c2cc(N(C)C3CCCCC3)ncn2)cc1` [Example 1-42], which EC50 is on record?
Answer: 2.28 µM

Question: For `CN(c1cc(C(=O)Nc2ccnc3ccccc23)ncn1)C1CCCCC1` [Example 1-43], which EC50 is on record?
Answer: 1.35 µM

Question: Which EC50 does the source give for `NCc1ccc(NC(=O)c2cc(N(CC3CC3)C3CCCCC3)ncn2)cc1` [Example 1-48] here?
Answer: 0.039 µM

Question: Which EC50 does the source give for `O=C(Nc1ccncc1)c1cc(N(CC2CC2)C2CCCCC2)ncn1` [Example 1-49] here?
Answer: 0.107 µM

Question: For `NC(=O)c1ccc(NC(=O)c2cc(N(CC3CC3)C3CCCCC3)ncn2)cc1` [Example 1-50], which EC50 is on record?
Answer: 0.073 µM

Question: For `O=C(Nc1ccc(S(=O)(=O)NCC(O)CO)cc1)c1cc(N(CC2CC2)C2CCCCC2)ncn1` (stereo not shown) [Example 1-51], which EC50 is on record?
Answer: 0.06 µM

Question: Which EC50 does the source give for `CCOCN(CCOC)c1cc(C(=O)Nc2ccc(S(N)(=O)=O)cc2C)ncn1` [Example 1-59] here?
Answer: 0.558 µM

Question: With `Cc1cc(S(N)(=O)=O)ccc1NC(=O)c1cc(OC2CCCCC2)ncn1` [Example 1-65] as the compound, how does the EC50 read?
Answer: 13.3 µM

Question: With `COCCN(c1cc(C(=O)Nc2ccc3[nH]ncc3c2)ncn1)C1CCCCC1` [Example 1-66] as the compound, how does the EC50 read?
Answer: 0.032 µM

Question: `CCCN(c1cc(C(=O)Nc2ccc3[nH]ncc3c2)ncn1)C(C)C` [Example 1-67] was tested. Which EC50 did it give?
Answer: 0.068 µM

Question: With `COCCN(CCOC)c1cc(C(=O)Nc2ccc3[nH]ncc3c2)ncn1` [Example 1-70] as the compound, how does the EC50 read?
Answer: 1.11 µM

Question: Which EC50 does the source give for `CCCN(CCC)c1cc(C(=O)Nc2ccc(CN)cc2)ncn1` [Example 1-72] here?
Answer: 0.497 µM

Question: Which EC50 does the source give for `CC(C)(C)OC(=O)CNCc1ccc(NC(=O)c2cc(N(CC3CC3)C3CCCCC3)ncn2)cc1` [Example 1-73] here?
Answer: 0.724 µM

Question: For `CCC(NCc1ccc(NC(=O)c2cc(N(CC3CC3)C3CCCCC3)ncn2)cc1)C(=O)OC` (stereo not shown) [Example 1-74], which EC50 is on record?
Answer: 2.16 µM

Question: With `CN(CC(=O)OC(C)(C)C)Cc1ccc(NC(=O)c2cc(N(CC3CC3)C3CCCCC3)ncn2)cc1` [Example 1-75] as the compound, how does the EC50 read?
Answer: 2.69 µM

Question: With `O=C(Nc1ccc(CN2CCNCC2)cc1)c1cc(N(CC2CC2)C2CCCCC2)ncn1` [Example 1-78] as the compound, how does the EC50 read?
Answer: 0.328 µM

Question: Which EC50 does the source give for `CCC(NCc1ccc(NC(=O)c2cc(N(CC3CC3)C3CCCCC3)ncn2)cc1)C(=O)O` (stereo not shown) [Example 1-80] here?
Answer: 0.287 µM

Question: Which EC50 does the source give for `COC(=O)C(C)(C)NCc1ccc(NC(=O)c2cc(N(CC3CC3)C3CCCCC3)ncn2)cc1` [Example 1-83] here?
Answer: 1.16 µM

Question: How did the EC50 turn out when `COCCN(c1cc(C(=O)Nc2ccc3[nH]ncc3c2)ncn1)C(C)C` [Example 1-87] was run?
Answer: 0.216 µM

Question: Which EC50 does the source give for `CCCN(CC1CC1)c1cc(C(=O)Nc2ccc(CN)cc2)ncn1` [Example 1-88] here?
Answer: 0.101 µM

Question: Which EC50 does the source give for `COCCN(CC1CC1)c1cc(C(=O)Nc2ccc(CN)cc2)ncn1` [Example 1-89] here?
Answer: 1.49 µM

Question: With `CCCN(CC1CC1)c1cc(C(=O)Nc2ccc3c(c2)CCNC3)ncn1` [Example 1-91] as the compound, how does the EC50 read?
Answer: 0.145 µM

Question: Which EC50 does the source give for `CCCN(CC1CC1)c1cc(C(=O)Nc2ccc3c(c2)CNCC3)ncn1` [Example 1-92] here?
Answer: 0.236 µM

Question: With `CCCN(CC1CC1)c1cc(C(=O)Nc2ccc(CN3CCOCC3)cc2C)ncn1` [Example 1-93] as the compound, how does the EC50 read?
Answer: 1.47 µM

Question: Which EC50 does the source give for `CCCN(CC1CC1)c1cc(C(=O)Nc2ccc(CN(C)C)cc2C)ncn1` [Example 1-94] here?
Answer: 0.265 µM

Question: Which EC50 does the source give for `CCCN(CC1CC1)c1cc(C(=O)Nc2ccc(CNCCOC)cc2C)ncn1` [Example 1-95] here?
Answer: 0.821 µM

Question: Which EC50 does the source give for `CCCN(CC1CC1)c1cc(C(=O)Nc2ccc(CN(C)CCO)cc2C)ncn1` [Example 1-96] here?
Answer: 0.391 µM

Question: With `CCCN(CC1CC1)c1cc(C(=O)Nc2ccc(CN3CCCC3=O)cc2C)ncn1` [Example 1-98] as the compound, how does the EC50 read?
Answer: 0.706 µM

Question: Which EC50 does the source give for `Cc1cc(S(=O)(=O)N(C)CC(=O)O)ccc1NC(=O)c1cc(N(CC2CC2)C2CCCCC2)ncn1` [Example 1-101] here?
Answer: 0.127 µM

Question: For `CCCN(CC1CC1)c1cc(C(=O)Nc2ccc(S(=O)(=O)N(C)CC(=O)O)cc2C)ncn1` [Example 1-102], which EC50 is on record?
Answer: 1.23 µM

Question: `CCCN(CC1CC1)c1cc(C(=O)Nc2ccc(S(=O)(=O)NCC(=O)O)cc2C)ncn1` [Example 1-103] was tested. Which EC50 did it give?
Answer: 0.208 µM

Question: With `CCCN(CC1CC1)c1cc(C(=O)Nc2ccc(CNC(C)C(=O)O)cc2C)ncn1` (stereo not shown) [Example 1-104] as the compound, how does the EC50 read?
Answer: 0.517 µM

Question: For `CCCN(CC1CC1)c1cc(C(=O)Nc2ccc(S(=O)(=O)NCCOC)cc2C)ncn1` [Example 1-106], which EC50 is on record?
Answer: 0.202 µM

Question: How did the EC50 turn out when `CCCN(CC1CC1)c1cc(C(=O)Nc2ccc(S(=O)(=O)NCCCC(=O)O)cc2C)ncn1` [Example 1-108] was run?
Answer: 0.238 µM

Question: `CCCN(CC1CC1)c1cc(C(=O)Nc2ccc(S(C)(=O)=O)cc2)ncn1` [Example 1-110] was tested. Which EC50 did it give?
Answer: 2.34 µM

Question: With `CCCN(CC1CC1)c1cc(C(=O)Nc2ccc(CNC)cc2C)ncn1` [Example 1-111] as the compound, how does the EC50 read?
Answer: 0.567 µM

Question: `CS(=O)(=O)c1ccc(NC(=O)c2cc(N(CC3CC3)C3CCCCC3)ncn2)cc1` [Example 1-112] was tested. Which EC50 did it give?
Answer: 0.193 µM

Question: Which EC50 does the source give for `CCCN(CC1CC1)c1cc(C(=O)Nc2ccc3nn(CC(=O)N(C)C)cc3c2)ncn1` [Example 1-114] here?
Answer: 1.32 µM

Question: Which EC50 does the source give for `CCCN(CC1CC1)c1cc(C(=O)Nc2ccc3c(cnn3CC(=O)N(C)C)c2)ncn1` [Example 1-115] here?
Answer: 2.85 µM

Question: Which EC50 does the source give for `CCCN(CC1CC1)c1cc(C(=O)Nc2ccc3c(cnn3CC(=O)O)c2)ncn1` [Example 1-116] here?
Answer: 3.27 µM

Question: With `CCCN(CC1CC1)c1cc(C(=O)Nc2ccc3c(cnn3CC(N)=O)c2)ncn1` [Example 1-117] as the compound, how does the EC50 read?
Answer: 1.07 µM

Question: How did the EC50 turn out when `CCCN(CC1CC1)c1cc(C(=O)Nc2ccc3nn(CC(N)=O)cc3c2)ncn1` [Example 1-118] was run?
Answer: 6.35 µM

Question: `CCCN(CC1CC1)c1cc(C(=O)Nc2ccc(CS(=O)(=O)CCC(=O)OCC)cc2)ncn1` [Example 1-119] was tested. Which EC50 did it give?
Answer: 5.05 µM

Question: How did the EC50 turn out when `CCCN(CC1CC1)c1cc(C(=O)Nc2ccc3nn(CC(=O)OCC)cc3c2)ncn1` [Example 1-120] was run?
Answer: 0.596 µM

Question: Which EC50 does the source give for `CCCN(CC1CC1)c1cc(C(=O)Nc2ccc3nn(CC(=O)O)cc3c2)ncn1` [Example 1-121] here?
Answer: 1.01 µM

Question: How did the EC50 turn out when `O=C(Nc1ccc(C(=O)O)c(F)c1)c1cc(N(CC2CC2)C2CCCCC2)ncn1` [Example 1-122] was run?
Answer: 4.36 µM

Question: Which EC50 does the source give for `CCCN(CC1CC1)c1cc(C(=O)Nc2ccc3[nH]nc(CCC(=O)OC)c3c2)ncn1` [Example 1-123] here?
Answer: 0.86 µM

Question: `CCCN(CC1CC1)c1cc(C(=O)Nc2ccc(S(=O)(=O)CCCC(=O)O)cc2)ncn1` [Example 1-124] was tested. Which EC50 did it give?
Answer: 1.5 µM

Question: With `CCCN(CC1CC1)c1cc(C(=O)Nc2ccc3[nH]cnc3c2)ncn1` [Example 1-125] as the compound, how does the EC50 read?
Answer: 2.75 µM

Question: How did the EC50 turn out when `CCCN(CC1CC1)c1cc(C(=O)Nc2ccc(CN(C)CC(=O)O)cc2C)ncn1` [Example 1-128] was run?
Answer: 0.816 µM

Question: Which EC50 does the source give for `CCCN(CC1CC1)c1cc(C(=O)Nc2ccc3[nH]nc(CCC(=O)O)c3c2)ncn1` [Example 1-129] here?
Answer: 1.71 µM
